Laboratory results from patent US10202361B2, “Pyridazinones as herbicides” (E I DU PONT DE NEMOURS AND COMPANY, priority 2014, dated 2019).
Where two headings read alike, the source gives them in different places.

What was measured:
Type in all cases: in vivo
[1] = test system: chickweed (common chickweed, Stellaria media); experiment: Test C postemergence greenhouse herbicide test
From the text: At the same time, plants selected from these crop and weed species and also barley (winter barley, Hordeum vulgare), canarygrass (Phalaris minor), windgrass (Apera spica-venti), deadnettle (henbit deadnettle, Lamium amplexicaule), and chickweed (common chickweed, Stellaria media) were planted in pots containing Redi-Earth® planting medium (Scotts Company, 14111 Scottslawn Road, Marysville, Ohio 43041) comprising spaghnum peat moss, vermiculite, wetting agent and starter nutrients and treated with postemergence applications of test chemicals formulated in the same manner. Plants ranged in height from 2 to 18 cm (1- to 4-leaf stage) for postemergence treatments. Treated plants and controls were maintained in a greenhouse for 13 to 15 d, after which time all species were compared to controls and visually evaluated. Plant response ratings, summarized in Table C, are based on a scale of 0 to 100 where 0 is no effect and 100 is complete control. A dash (-) response means no test result.

[2] = test system: oilseed rape (Brassica napus); experiment: Test C pre-/postemergence greenhouse herbicide test; conditions: Oilseed Rape
Method in brief: (§1)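 Seeds in loam–sand blend sprayed preemergence, and 1- to 4-leaf plants (2–18 cm) sprayed postemergence, with compounds in non-phytotoxic solvent plus surfactant. Visual rating versus controls after 13–15 d in greenhouse, 0 (no effect) to 100 (complete control).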

[3] = test system: foxtail, giant (giant foxtail, Setaria faberii); experiment: as above; conditions: Setaria faberi, Foxtail, Giant, read-out: Plant response rating; for pest or weed control at 31 g/ha: 31 g ai/ha; for pest or weed control at 62 g/ha: 62 g ai/ha; for pest or weed control at 125 g/ha: 125 g ai/ha; for pest or weed control at 250 g/ha: 250 g ai/ha
Method in brief: as §1

[4] = test system: johnsongrass (Sorghum halepense); experiment: as above; conditions: Sorghum halepense, Johnsongrass, read-out: Plant response rating; for pest or weed control at 31 g/ha: 31 g ai/ha; for pest or weed control at 62 g/ha: 62 g ai/ha; for pest or weed control at 125 g/ha: 125 g ai/ha; for pest or weed control at 250 g/ha: 250 g ai/ha
Method in brief: as §1

[5] = test system: nutsedge, yellow (yellow nutsedge, Cyperus esculentus); experiment: as above; conditions: Cyperus, Nutsedge, Yellow, read-out: Plant response rating; for pest or weed control at 31 g/ha: 31 g ai/ha; for pest or weed control at 62 g/ha: 62 g ai/ha; for pest or weed control at 125 g/ha: 125 g ai/ha; for pest or weed control at 250 g/ha: 250 g ai/ha
Method in brief: as §1

[6] = test system: velvetleaf (Abutilon theophrasti); experiment: as above; conditions: Abutilon theophrasti, Velvetleaf, read-out: Plant response rating; for pest or weed control at 31 g/ha: 31 g ai/ha; for pest or weed control at 62 g/ha: 62 g ai/ha; for pest or weed control at 125 g/ha: 125 g ai/ha; for pest or weed control at 250 g/ha: 250 g ai/ha
Method in brief: as §1

[7] = test system: ducksalad (Heteranthera limosa); experiment: Test B flooded paddy test; conditions: Heteranthera limosa, 312 h; Flood, 125 g ai/ha; scale of 0 to 100, 0 is no effect, 100 is complete control; 13 to 15 d; read-out: Plant response rating, Ducksalad
Method in brief: (§2)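 Plants at the 2-leaf stage were flooded to 3 cm and treated by applying compound directly to the paddy water, with depth held constant throughout. After 13–15 d in a greenhouse, injury was rated visually against controls on a 0 (no effect) to 100 (complete control) scale.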

[8] = test system: sedge, umbrella (small-flower umbrella sedge, Cyperus difformis); experiment: Test B flooded paddy test; conditions: Cyperus difformis, 312 h; Flood, 125 g ai/ha; scale of 0 to 100, 0 is no effect, 100 is complete control; 13 to 15 d; read-out: Plant response rating, Sedge, Umbrella
Method in brief: as §2

rice (Oryza sativa) = experiment: Test B flooded paddy test; conditions: Oryza sativa, 312 h; Flood, 125 g ai/ha; scale of 0 to 100, 0 is no effect, 100 is complete control; 13 to 15 d; read-out: Plant response rating, Rice
Method in brief: as §2

[9] = test system: barnyardgrass (Echinochloa crus-galli); experiment: Test B flooded paddy test; conditions: Echinochloa crus-galli, 312 h; Flood, 125 g ai/ha; scale of 0 to 100, 0 is no effect, 100 is complete control; 13 to 15 d; read-out: Plant response rating, Barnyardgrass
Method in brief: as §2

## Cc1cc(=O)n(-c2ccc(F)cc2)nc1Cc1ccnc(C(F)(F)F)c1 [Compound 1, 2-(4-fluorophenyl)-5-methyl-6-[[2-(trifluoromethyl)-4-pyridinyl]methyl]-3(2H)-pyridazinone]
[1]; 31 g ai/ha
  Plant response rating: 40
[1]; 62 g ai/ha
  Plant response rating: 45
[1]; 125 g ai/ha
  Plant response rating: 60
[1]; 250 g ai/ha
  Plant response rating: 90
[2]; Postemergence, 31 g ai/ha
  Plant response rating: 5
[2]; Postemergence, 62 g ai/ha
  Plant response rating: 5
[2]; Postemergence, 125 g ai/ha
  Plant response rating: 10
[2]; Postemergence, 250 g ai/ha
  Plant response rating: 30
[2]; Preemergence, 31 g ai/ha
  Plant response rating: 30
[2]; Preemergence, 62 g ai/ha
  Plant response rating: 80
[2]; Preemergence, 125 g ai/ha
  Plant response rating: 100
[2]; Preemergence, 250 g ai/ha
  Plant response rating: 100
[3]; post-emergence, Postemergence
  pest or weed control at 31 g/ha: 10%
  pest or weed control at 62 g/ha: 10%
  pest or weed control at 125 g/ha: 15%
  pest or weed control at 250 g/ha: 20%
[3]; pre-emergence, Preemergence
  pest or weed control at 31 g/ha: 100%
  pest or weed control at 62 g/ha: 100%
  pest or weed control at 125 g/ha: 100%
  pest or weed control at 250 g/ha: 100%
[4]; post-emergence, Postemergence
  pest or weed control at 31 g/ha: 5%
  pest or weed control at 62 g/ha: 5%
  pest or weed control at 125 g/ha: 5%
  pest or weed control at 250 g/ha: 5%
[4]; pre-emergence, Preemergence
  pest or weed control at 31 g/ha: 35%
  pest or weed control at 62 g/ha: 60%
  pest or weed control at 125 g/ha: 85%
  pest or weed control at 250 g/ha: 100%
[5]; post-emergence, Postemergence
  pest or weed control at 31 g/ha: 0%
  pest or weed control at 62 g/ha: 5%
  pest or weed control at 125 g/ha: 5%
  pest or weed control at 250 g/ha: 5%
[5]; pre-emergence, Preemergence
  pest or weed control at 31 g/ha: 10%
  pest or weed control at 62 g/ha: 30%
  pest or weed control at 125 g/ha: 50%
  pest or weed control at 250 g/ha: 55%
[6]; post-emergence, Postemergence
  pest or weed control at 31 g/ha: 10%
  pest or weed control at 62 g/ha: 20%
  pest or weed control at 125 g/ha: 20%
  pest or weed control at 250 g/ha: 30%
[6]; pre-emergence, Preemergence
  pest or weed control at 62 g/ha: 35%
  pest or weed control at 125 g/ha: 40%
  pest or weed control at 250 g/ha: 100%
[7]
  pest or weed control at 125 g/ha: 60%
[8]
  pest or weed control at 125 g/ha: 80%
Rice (Oryza sativa)
  plant injury at 125 g/ha: 20%
[9]
  pest or weed control at 125 g/ha: 10%

## Cc1cc(=O)n(-c2ccc(C(F)(F)F)cc2)nc1Cc1ccnc(C(F)(F)F)c1 [Compound 2, 5-methyl-2-[4-(trifluoromethyl)phenyl]-6-[[2-(trifluoromethyl)-4-pyridinyl]methyl]-3(2H)-pyridazinone]
[1]; 31 g ai/ha
  Plant response rating: 60
[1]; 62 g ai/ha
  Plant response rating: 70
[1]; 125 g ai/ha
  Plant response rating: 90
[1]; 250 g ai/ha
  Plant response rating: 90
[2]; Postemergence, 31 g ai/ha
  Plant response rating: 5
[2]; Postemergence, 62 g ai/ha
  Plant response rating: 30
[2]; Postemergence, 125 g ai/ha
  Plant response rating: 45
[2]; Postemergence, 250 g ai/ha
  Plant response rating: 50
[2]; Preemergence, 31 g ai/ha
  Plant response rating: 100
[2]; Preemergence, 62 g ai/ha
  Plant response rating: 100
[2]; Preemergence, 125 g ai/ha
  Plant response rating: 100
[2]; Preemergence, 250 g ai/ha
  Plant response rating: 100
[3]; post-emergence, Postemergence
  pest or weed control at 31 g/ha: 10%
  pest or weed control at 62 g/ha: 10%
  pest or weed control at 125 g/ha: 25%
  pest or weed control at 250 g/ha: 25%
[3]; pre-emergence, Preemergence
  pest or weed control at 31 g/ha: 45%
  pest or weed control at 62 g/ha: 98%
  pest or weed control at 125 g/ha: 100%
  pest or weed control at 250 g/ha: 100%
[4]; post-emergence, Postemergence
  pest or weed control at 31 g/ha: 5%
  pest or weed control at 62 g/ha: 5%
  pest or weed control at 125 g/ha: 10%
  pest or weed control at 250 g/ha: 10%
[4]; pre-emergence, Preemergence
  pest or weed control at 31 g/ha: 65%
  pest or weed control at 62 g/ha: 70%
  pest or weed control at 125 g/ha: 80%
  pest or weed control at 250 g/ha: 90%
[5]; post-emergence, Postemergence
  pest or weed control at 31 g/ha: 5%
  pest or weed control at 62 g/ha: 5%
  pest or weed control at 125 g/ha: 5%
  pest or weed control at 250 g/ha: 10%
[5]; pre-emergence, Preemergence
  pest or weed control at 31 g/ha: 10%
  pest or weed control at 62 g/ha: 25%
  pest or weed control at 125 g/ha: 35%
[6]; post-emergence, Postemergence
  pest or weed control at 31 g/ha: 25%
  pest or weed control at 62 g/ha: 30%
  pest or weed control at 125 g/ha: 30%
  pest or weed control at 250 g/ha: 35%
[6]; pre-emergence, Preemergence
  pest or weed control at 62 g/ha: 40%
  pest or weed control at 125 g/ha: 85%
  pest or weed control at 250 g/ha: 85%
[7]
  pest or weed control at 125 g/ha: 10%
[8]
  pest or weed control at 125 g/ha: 80%
Rice (Oryza sativa)
  plant injury at 125 g/ha: 0%
[9]
  pest or weed control at 125 g/ha: 0%

## Cc1cc(Oc2ccnc(C(F)(F)F)c2)nn(-c2ccc(C(F)(F)F)cc2)c1=O [Compound 6, 4-methyl-2-[4-(trifluoromethyl)phenyl]-6-[[2-(trifluoromethyl)-4-pyridinyl]oxy]-3(2H)-pyridazinone]
[1]; 31 g ai/ha
  Plant response rating: 80
[1]; 62 g ai/ha
  Plant response rating: 95
[1]; 125 g ai/ha
  Plant response rating: 95
[1]; 250 g ai/ha
  Plant response rating: 98
[2]; Postemergence, 31 g ai/ha
  Plant response rating: 85
[2]; Postemergence, 62 g ai/ha
  Plant response rating: 85
[2]; Postemergence, 125 g ai/ha
  Plant response rating: 95
[2]; Postemergence, 250 g ai/ha
  Plant response rating: 95
[3]; post-emergence, Postemergence
  pest or weed control at 31 g/ha: 25%
  pest or weed control at 62 g/ha: 35%
  pest or weed control at 125 g/ha: 65%
  pest or weed control at 250 g/ha: 85%
[4]; post-emergence, Postemergence
  pest or weed control at 31 g/ha: 5%
  pest or weed control at 62 g/ha: 10%
  pest or weed control at 125 g/ha: 20%
  pest or weed control at 250 g/ha: 40%
[5]; post-emergence, Postemergence
  pest or weed control at 31 g/ha: 5%
  pest or weed control at 62 g/ha: 5%
  pest or weed control at 125 g/ha: 5%
  pest or weed control at 250 g/ha: 15%
[6]; post-emergence, Postemergence
  pest or weed control at 31 g/ha: 45%
  pest or weed control at 62 g/ha: 45%
  pest or weed control at 125 g/ha: 55%
  pest or weed control at 250 g/ha: 95%
[7]
  pest or weed control at 125 g/ha: 0%
[8]
  pest or weed control at 125 g/ha: 0%
Rice (Oryza sativa)
  plant injury at 125 g/ha: 0%
[9]
  pest or weed control at 125 g/ha: 0%
